Patent publication US6107549A, “Genetically engineered plant resistance to thiazopyr and other pyridine herbicides” (Monsanto Company, priority 1999, dated 2000)

Experiments:
tobacco calli = test: Herbicide toxicity to tobacco calli on selection media; format: cell-based; details: for callus survival: control calli, concentrations above 1 μM, after 3 weeks; for suitable selection concentration for RLE3-expressing transgenic tobacco calli: preliminary experiments
Source text: The experimental procedure compared the herbicide toxicity of the pyridines upon exposure to tobacco calli that were transformed with a plasmid DNA, pMON13765 (FIG. 8) containing the RLE3 gene, and tobacco calli controls transformed with isogenic plasmid DNA without the RLE3 gene. The vectors, which also encoded NPTII for kanamycin selection, were introduced via Agrobacterium transformation. Kanamycin resistant calli were cut into pieces of 3-5 mm diameter and transferred onto selection media (Murahige and Skoog basal salt mixture in 0.9% agar) containing 0.01, 0.1, 1.0, or 10.0 μM concentration of either thiazopyr or MON 14300 (1 mM stock solution in DMSO). Plates were placed in a lighted growth chamber maintained at 22° C. […] Most control calli were dead after 3 weeks at pyridine herbicide concentrations above 1 μM. […] Preliminary experiments identified 0.1 μM 14300 or thiazopyr as a suitable selection concentration for identifying transgenic tobacco calli that are expressing the RLE3 esterase. It is believed that any member of the pyridine herbicide family that is deactivated by an esterase, and any esterase gene that can hydrolyze the methylester group of a pyridine herbicide would be able to function in this selection system.

pyridine-esterase [1] = target: T1, pyridine-esterase (Oryctolagus cuniculus, UniProt P12337, A196R/H30K); test: Esterase activity in leaf extracts from R0 tomato and tobacco plants; format: biochemical, rabbit; details: R0 tomato and tobacco plants expressing the 60 kD esterase
T1 construct: made in house; host or cells: transgenic tobacco (Samson) and tomato (UC82B) plants, tissue extracts
T1 sequence (P12337 19-565 H30K/A196R): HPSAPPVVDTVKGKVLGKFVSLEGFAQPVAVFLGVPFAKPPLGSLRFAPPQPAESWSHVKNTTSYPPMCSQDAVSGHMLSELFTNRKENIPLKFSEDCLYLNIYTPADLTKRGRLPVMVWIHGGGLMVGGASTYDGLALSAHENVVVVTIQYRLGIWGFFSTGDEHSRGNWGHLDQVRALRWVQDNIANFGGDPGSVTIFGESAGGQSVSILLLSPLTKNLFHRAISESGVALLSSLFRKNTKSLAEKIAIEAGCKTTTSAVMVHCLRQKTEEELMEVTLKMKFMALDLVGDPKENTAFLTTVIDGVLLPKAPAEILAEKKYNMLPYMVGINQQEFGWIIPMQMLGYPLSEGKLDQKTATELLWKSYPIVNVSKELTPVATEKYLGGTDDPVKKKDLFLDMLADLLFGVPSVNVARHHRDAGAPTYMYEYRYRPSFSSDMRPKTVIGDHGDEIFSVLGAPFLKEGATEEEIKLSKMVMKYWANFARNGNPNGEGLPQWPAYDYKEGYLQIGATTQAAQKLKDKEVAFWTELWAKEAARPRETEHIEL
Description: Esterase activity assays. Esterase activity was measured in vitro by conversion of either [^14 C]thiazopyr or [^14 C]MON 14300 to their corresponding monoacid. Pyridine-esterase activity was assayed during protein purification and from tissue extracts of transgenic plants. The homogenizing buffer for plant tissues consisted of 100 mM Tris pH 8.0, 1 mM EDTA, 1 mM DTT, and 10% glycerol in water. Plant tissues (1 g/ml buffer) including leaves, seeds, flowers, seedlings, etc. were homogenized in conical centrifuge tubes using a spinning pestle at 4° C. Following centrifugation (12,000× g), the supernatant (250 μl) was assayed immediately for esterase activity by incubation with [^14 C]thiazopyr or [^14 C]MON 14300 (4 μg) in 0.1 M Tris pH 8.0 buffer (50 μl) at 37° C. The reaction was sampled (100 μL) at various times (0.5 to 100 hr) to generate a kinetic profile of monoacid formation. The reaction was stopped by addition of 1% trifluoroacetic acid in acetonitrile (v/v, 150 μl). Following centrifugation (12,000× g for 3 min), the supernatant was analyzed by HPLC/RAD (radioactivity detection) to resolve the monoacid from the parent herbicide and other metabolites. Control reactions in the absence of the esterase recovered un-reacted thiazopyr or MON 14300 for the duration of experiments. […]

rabbit liver esterase = test: Pyridine-esterase activity assay with rabbit liver esterase; format: biochemical; details: commercially available rabbit liver esterase
Description: Esterase activity assays. Esterase activity was measured in vitro by conversion of either [^14 C]thiazopyr or [^14 C]MON 14300 to their corresponding monoacid. Pyridine-esterase activity was assayed during protein purification and from tissue extracts of transgenic plants. The homogenizing buffer for plant tissues consisted of 100 mM Tris pH 8.0, 1 mM EDTA, 1 mM DTT, and 10% glycerol in water. Plant tissues (1 g/ml buffer) including leaves, seeds, flowers, seedlings, etc. were homogenized in conical centrifuge tubes using a spinning pestle at 4° C. […] Following centrifugation (12,000× g for 3 min), the supernatant was analyzed by HPLC/RAD (radioactivity detection) to resolve the monoacid from the parent herbicide and other metabolites. […]
Purification of pyridine-esterases from porcine and rabbit liver. […] Effluent was monitored by UV (280 nm) and fractions were collected at 1 ml intervals. […] Protein purity was determined by SDS-PAGE on 10 to 15% gradient gels (Pharmacia Biotech) with visualization of proteins by silver staining.
Following anion exchange chromatography, fractions with the highest purity and activity were pooled. […] Effluent fractions from IEF chromatography were analyzed for protein and pyridine-esterase activity. The protein purity of the fractions was determined by SDS-PAGE and IEF-PAGE.

pyridine-esterase [2] = target: T1, pyridine-esterase; format: biochemical, rabbit; details: for hydrolysis by pyridine-esterase (substrate specificity): tobacco line #37437 extract, FIG. 4
Description: Esterase activity assays. Esterase activity was measured in vitro by conversion of either [^14 C]thiazopyr or [^14 C]MON 14300 to their corresponding monoacid. Pyridine-esterase activity was assayed during protein purification and from tissue extracts of transgenic plants. The homogenizing buffer for plant tissues consisted of 100 mM Tris pH 8.0, 1 mM EDTA, 1 mM DTT, and 10% glycerol in water. Plant tissues (1 g/ml buffer) including leaves, seeds, flowers, seedlings, etc. were homogenized in conical centrifuge tubes using a spinning pestle at 4° C. Following centrifugation (12,000× g), the supernatant (250 μl) was assayed immediately for esterase activity by incubation with [^14 C]thiazopyr or [^14 C]MON 14300 (4 μg) in 0.1 M Tris pH 8.0 buffer (50 μl) at 37° C. The reaction was sampled (100 μL) at various times (0.5 to 100 hr) to generate a kinetic profile of monoacid formation. The reaction was stopped by addition of 1% trifluoroacetic acid in acetonitrile (v/v, 150 μl). Following centrifugation (12,000× g for 3 min), the supernatant was analyzed by HPLC/RAD (radioactivity detection) to resolve the monoacid from the parent herbicide and other metabolites. Control reactions in the absence of the esterase recovered un-reacted thiazopyr or MON 14300 for the duration of experiments. Esterase activity was also assayed during protein purification following a similar procedure except a single time-point (1-2 hrs) of incubation was selected within the linear range of reaction. In vitro assays also employed three commonly used calorimetric (p-nitrophenyl butyrate) or fluorescent (4-methyl umbelliferyl butyrate and 5-bromo-4-chloro-3-indolylacetate) substrates. These substrates are useful in rapidly and qualitatively detecting general esterase activity.
Tissue extracts from 3 tobacco R1 seedlings were employed for further studies. Two of the lines (#37437 and #37432) expressed high levels of esterase (~0.5%) and one line (#37436) which expressed no pyridine-esterase was used as negative control. Tissue extracts were incubated with [^14 C]MON 14300 and formation of the monoacid monitored with time. […] In comparison, less that 2% monoacid was detected in line (#37436). […] First, pyridine-esterase was capable of driving the hydrolysis reaction to completion with no apparent product inhibition, and second, there was no endogenous esterase activity in tobacco which catalyzed MON 14300 hydrolysis.

[3] = control vector calli, concentrations above 0.1 μM, after 2-3 weeks

| Compound | callus growth (tobacco calli; RLE3 calli, 1.0 to 10 μM) | callus growth (tobacco calli; calli expressing RLE3, 0.1 μM) | callus survival (tobacco calli) | callus growth (tobacco calli; [3]) | suitable selection concentration for RLE3-expressing transgenic tobacco calli (tobacco calli) | hydrolysis by leaf extracts (pyridine-esterase [1]) | esterase activity against substrate (rabbit liver esterase) | hydrolysis to monoacid metabolite (pyridine-esterase [2]; expressing lines #37432 and #37437, FIG. 3) | hydrolysis by pyridine-esterase (substrate specificity) (pyridine-esterase [2]) | monoacid formed (pyridine-esterase [2]; tobacco, seedling tissue extract, 100 h) |
| --- | --- | --- | --- | --- | --- | --- | --- | --- | --- | --- |
| COC(=O)c1c(C(F)F)nc(C(F)(F)F)c(C(=O)n2cccn2)c1CC(C)C [MON 14300] | stunting with reduced shoot development | vigorous growth and shoot development | dead | little growth | 0.1 µM | did demonstrate the hydrolysis | active | efficient hydrolysis | clearly hydrolyzed | 90% |
| COC(=O)c1c(C(F)F)nc(C(F)(F)F)c(C2=NCCS2)c1CC(C)C [thiazopyr] | stunting with reduced shoot development | vigorous growth and shoot development | dead | little growth | 0.1 µM | did demonstrate the hydrolysis | active |  | clearly hydrolyzed |  |
